Tests used:
Type in all cases: in vivo, Arabidopsis thaliana
BSS1-GFP [1] = test: Fluorescence microscopy of punctate BSS1-GFP in transgenic seedlings; details: versus control conditions; for number of punctate BSS1-GFP: seedlings grown on medium with 3 μM Brz or 100 nM BL
[2] = system: BR-responsive genes (TCH4, BAS1, IAA19, and SAUR-AC1); test: qRT-PCR of BR-responsive gene expression in seedlings; details: wild-type (WT) plants; 7-day-old dark-germinated seedlings; 3 μM Brz or 100 nM BL for 3 hours
Protocol: The expression level of TCH, BAS1, IAA19, and SAUR-AC1 were analyzed by qRT-PCR in 7-day-old dark-germinated seedlings and treated with medium containing DMSO (Mock), 3 μM Brz (+Brz), or 100 nM BL (+BL) for 3 hours. The data represent the mean±s.d. of 4 independent experiments (**P<0.01, Student's t-test). […] Ten-day-old seedlings grown on medium with Brz were treated with 100 nM BL or mock solution for 3 hours. Total proteins were extracted and analyzed by immunoblotting with an anti-BIL1 antibody. […] The signal intensities of phosphorylated BIL1 (above) and dephosphorylated BIL1 (below) are shown by arrowhead, and each band signal is counted as a percentage relative to the level of phosphorylated BIL1 in WT seedlings.
Total RNA was extracted from plants using an RNeasy Plant Mini Kit (QIAGEN).
The first-strand cDNA was synthesized using PrimeScript (Takara) and was used in qRT-PCR. The qRT-PCR was performed according to the instructions provided for the Thermal Cycler Dice (Takara) using the SYBR Premix ExTaq system (Takara). […]

BSS1 = test: qRT-PCR of BSS1 expression in wild-type seedlings; details: WT seedlings on medium with different concentrations of Brz or BL, 7 days; dose-dependent
Protocol: The data represent the mean±s.d. from 4 independent experiments. […] The samples were grown in the same conditions as FIG. 4A for 3 days (scale bar: 5 mm). FIGS. 4C to 4E show the results of determining the BSS1 expression level by qRT-PCR. Wild-type (WT) seedlings grown on medium with different concentrations of Brz (FIG. 4C) and BL (FIG. 4D) in the light for 7 days and dark-grown seedlings exposed to light for 0-7 days (Figure E) were used for analysis of the BSS1 expression level. The data represent the mean±s.d. of 4 independent experiments.
Approximately 10,000 RIKEN GSC Arabidopsis activation-tagging lines (Nakazawa et al., 2003, Activation tagging, a novel tool to dissect the functions of a gene family. Plant J. 34: 741-750) were screened on ½ MS medium containing 3 μM Brz (Asami et al., 2000, Characterization of brassinazole, a triazole-type brassinosteroid biosynthesis inhibitor, Plant Physiol. 123: 93-100). After growth for 7 days in the dark, seedlings with shorter hypocotyls than those of the controls were identified and transferred to soil. […] First-strand cDNA was synthesized with PrimeScript (Takara) and used in quantitative real-time PCR (qRT-PCR). […]

BSS1-GFP [3] = test: Fluorescence microscopy of punctate BSS1-GFP in transgenic seedlings; details: for number of intense puncta per cell: 7-day-old BSS1-GFP seedlings treated 3 hours with 3 μM Brz or 100 μM BL; for single fluorescence intensity of each punctum: Brz versus BL treatment conditions, 3 hours; for onset of responsiveness of punctate BSS1-GFP: time after treatment, roots and hypocotyls
Protocol: FIGS. 5C to 5E show analysis of BSS1-GFP puncta signal intensities upon treatment with Brz and BL. Seven-day-old BSS1-GFP transgenic seedlings were treated for 3 hours with 3 μM Brz (Brz), an equal volume of DMSO (Mock), or 100 μM BL (BL). […] The results are represented as the mean±s.d. The signal intensity was measured using ImageJ software. […]
The plants that were transformed with the CaMV35S-BSS1-GFP construct BSS1(-GFP)-OX and the CaMV35S-BIL1-GFP construct BIL1-GFP-OX were observed via confocal laser scanning microscopy with a BX60 fluorescence microscope (Olympus) equipped with a Model CSU10 confocal scanner (Yokogawa Electric) and LSM700 (Zeiss).
FM4-64 (Molecular Probes) dissolved in water was applied to Arabidopsis plants at a final concentration of 4 μM for 3 minutes. The plants were washed with water to remove the excessive amount of the stain and observed. A DMSO-base stock solution of Brefeldin A (BFA) (Sigma) was applied to the cells at a final concentration of 50 μM for 1 hour.
The images were analyzed using ImageJ software. To measure the ratio of the nuclear and cytosolic signals of BIL1-GFP for each cell, the signal intensities in the nucleus and cytosol were calculated from the mean of the intensity in each area. The nuclear to cytosolic signal ratio was then calculated for each cell. The average nuclear/cytosolic signal ratio and standard error were calculated from measurements of at least 54 cells from each line (FIG. 9B). Line scan measurements from the vacuole to the nucleus through the cytosol were performed, and representative plot profiles of sample measurements are presented in FIG. 5C.

Compound	number of punctate BSS1-GFP (BSS1-GFP [1])	expression of TCH4, BAS1, IAA19, and SAUR-AC1 [2]	BSS1 expression (BSS1)	number of intense puncta per cell (BSS1-GFP [3]; versus mock)	single fluorescence intensity of each punctum (BSS1-GFP [3])	onset of responsiveness of punctate BSS1-GFP (BSS1-GFP [3]) [min]	diffused BSS1-GFP signal in the cytosol (BSS1-GFP [1]; seedlings grown on medium containing Brz)	fluorescence intensity of the puncta per cell with respect to the whole-cell fluorescence intensity (BSS1-GFP [3]; 7-day-old BSS1-GFP seedlings treated 3 hours with 3 μM Brz)	cytosolic fluorescence signal (BSS1-GFP [3]; 7-day-old BSS1-GFP seedlings treated 3 hours with 3 μM Brz, versus mock)
CC(C)[C@H](C)[C@@H](O)[C@H](O)[C@@H](C)[C@H]1CC[C@H]2[C@@H]3COC(=O)[C@H]4C[C@H](O)[C@H](O)C[C@]4(C)[C@H]3CC[C@]12C [BL, brassinolide]	decreased in number	increased	decreased	decreased	not different	15			
CC(O)(c1ccccc1)C(Cc1ccc(Cl)cc1)n1cncn1 (stereo not drawn) [Brz, brassinazole]	increased in number	suppressed	increased	increased	not different	15	reduced	increase	decreased
